Reference: US11286278B2, “DPEP-1 binding agents and methods of use” (Arch Biopartners, Inc., priority 2018, dated 2022)
Ends that are not written are not given here.

Key:
[1] = Incubation in whole human blood, LC/MS of metabolites; type: in vitro ADME; conditions: 50 μg/mL, whole human blood (citrate or K2 EDTA), up to 120 min
Method: Plasma was separated for each sample and phosphoric acid added to stabilize peptide at each timepoint. Samples were assessed for LSALT and its' metabolites using LC/MS. LSALT metabolites were identified using PEAKS X and database searches against LSALT and the human proteome. […] Transfected cells were positively selected for using geneticin resistance and subcloned to generate stably transfected DPEP1 clones. Stably transfected DPEP1 HEK cells were resuspended and incubated with biotinylated LSALT fragment peptides (50 μM) for 1 hour at 37° C. before PBS washes. Bound biotinylated peptide was detected via secondary streptavidin fluorescent conjugate (30 min. incubation at 37° C.) and washed with PBS. Peptide binding was analyzed via flow cytometer. Percentage of peptide binding was compared relative to negative control. […] LysM^(gfp) mice were subjected to endotoxemia via intravenous injection of lipopolysaccharide (LPS, O111:B4) at a dose of 5 mg/kg. The kidney was imaged using multiphoton microscopy at 4 hours post-injection. Various LSALT fragments was used intravenously to pretreat mice 10 min. before LPS injection. Inflammation was quantified by manual counting of monocyte adhesion in single microscopy fields (LPS vs. Fragment C; n=3-6 fields/group; ***:p=0.004).

[2] = biological target: T1, human membrane dipeptidase (DPEP-1) (Homo sapiens, UniProt P16444); assay: Membrane dipeptidase enzyme activity assay (Gly-D-Phe, fluorometric); type: biochemical; conditions: lysates of transfected Cos1 cells, substrate Gly-D-Phe
T1 construct: expressed in transfected cells; host or cells: Cos-1
T1 sequence (P16444 17-385): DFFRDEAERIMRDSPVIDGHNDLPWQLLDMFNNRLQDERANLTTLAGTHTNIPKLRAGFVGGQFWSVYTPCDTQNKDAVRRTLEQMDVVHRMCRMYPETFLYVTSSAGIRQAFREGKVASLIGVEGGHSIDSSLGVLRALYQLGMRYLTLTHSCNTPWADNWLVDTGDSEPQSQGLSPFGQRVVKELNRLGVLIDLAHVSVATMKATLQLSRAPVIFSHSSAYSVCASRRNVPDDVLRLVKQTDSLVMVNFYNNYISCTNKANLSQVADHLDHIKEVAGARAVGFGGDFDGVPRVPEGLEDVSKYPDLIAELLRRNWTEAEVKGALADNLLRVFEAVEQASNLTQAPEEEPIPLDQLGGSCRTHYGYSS
Method: 24 hours after transfection, DPEP-1 expressing cells weer reseeded on 24 well collagen coated (neutralized) plates and allowed to grow for 24 hours at 37° C. […] Cells were blocked with FBS/NBSA/Tween in PBS for 30 minutes on ice. […] After incubation, cells were washed with PBS and stained with DAPI for 4 minutes on ice. Cells were again washed with PBS, fixed using 4% paraformaldehyde and immunofluoresence microscopy was performed to assess binding. Proteins from human DPEP-1 transfected cells were isolated after 48 hours using octyl-glucoside/RIPA in the absence of protease inhibitors. […] Proteins from transfected cells were isolated after 48 hours using octyl-glucoside/RIPA lysis buffer and western blot analysis was performed to assess DPEP-1 expression using DPEP-1 antibody (Sigma).
The fluorescence signal generated from the conversion of D-Phe to […] in the presence of D-aminoacidoxidase and peroxidase was measured using a fluorescence plate reader.
Proteins from DPEP-1 transfected cells were isolated after 48 hours using octyl-glucoside/RIPA lysis buffer and western blot analysis was performed to assess DPEP-1 expression using a DPEP-1 specific antibody (Proteintech) (FIG. 24B).

human DPEP2 = biological target: T2, human DPEP2 (Homo sapiens, UniProt Q9H4A9); assay: Immunofluorescence binding to Cos-1 cells transfected with human DPEP2; conditions: Alexa-488 conjugate
T2 construct: expressed in transfected cells; host or cells: Cos-1
Method: Cos-1 cells were transiently transfected with either 3 μg of human DPEP-1, DPEP2, or DPEP3 gene using Lipofectamine 2000 (Invitrogen) reagent in OptiMEM medium. 24 hours after transfection, DPEP-1, DPEP2, or DPEP3 expressing cells were re-seeded on collagen coated (neutralized) wells in 24 well plates and allowed to grow for 24 hours at 37° C. […] Cells were blocked with FBS/NBSA/Tween in PBS for 30 minutes on ice. Cells were then washed with PBS and incubated with LSALT or GFE-1, conjugated with Alexa-488 (green). After incubation, cells were washed with PBS and stained with DAPI for 5 minutes on ice. Cells were then washed with PBS and fixed using 4% paraformaldehyde and immunofluorescence microscopy was performed to assess binding. Representative photomicrographs are shown for each experimental condition (n=3) in FIG. 6A. Proteins from DPEP-1, DPEP2 and DPEP3 transfected cells were isolated after 48 hours using octyl-glucoside/RIPA lysis buffer and western blot analysis was performed to assess DPEP-1, DPEP2 and DPEP3 protein expression using specific antibodies; DPEP-1 antibody (Sigma), DPEP2 (Abcam) and DPEP3 (Santacruz). Blots were stripped and reprobed with an anti-β-actin.

[3] = biological target: T3, renal rat membrane dipeptidase (DPEP-1) (Rattus norvegicus, UniProt P31430); assay: Binding of Alexa-488 conjugated peptides to Cos-7 cells transfected with renal rat membrane dipeptidase; conditions: Alexa-488 conjugate, on ice 30 minutes
T3 construct: expressed in transfected cells; host or cells: Cos-7
Method: Cells were incubated with LSALT or GFE-1 conjugated with Alexa-488 (Green), or control peptide conjugated with Alexa-488 (Green) on ice for 30 minutes. Cells were washed and fixed using 4% paraformaldehyde and immunofluorescence microscopy was performed to assess binding. Shown are representative photomicrographs of each experimental condition (n=2).
48 hours after transfection, cells were incubated with LSALT conjugated to Alexa-488 (green) on ice for 30 minutes. Cells were washed and flow cytometry was performed to assess binding. Shown are single parameter histographs for each experimental condition (n=2).

[4] = test system: neutrophil adhesion in the hepatic sinusoids; assay: Neutrophil adhesion in hepatic sinusoids after LPS, intravital microscopy; type: in vivo, mouse; conditions: LysM gfp mice, LPS 0.5 mg/kg i.p., peptide 1 mM i.v.
Method: Six to ten week old LysM^(gfp) mice were injected with 1 mM dose of LSALT or 1KGAL (control) (intravenous) 5 minutes after the injection of 0.5 mg/kg of lipopolysaccharide (intraperitoneal). After 3 hours, animals were injected with ketamine and xylazine to provide general anesthesia. Fluorescently conjugated F4/80 and PECAM-1 antibodies were then administered via jugular vein cannulation and intravital spinning disk confocal microscopy was performed. The livers were imaged for an hour and the number of neutrophils were counted at different time points. Neutrophils which were stationary for ≥30 seconds in the liver sinusoids were counted as adherent cells. Data are representative of three independent experiments. An unpaired 2-tailed student's t-test was performed comparing LSALT, […] control treated group against the LPS treated group (*p<0.05).

T3 sequence (P31430 17-384): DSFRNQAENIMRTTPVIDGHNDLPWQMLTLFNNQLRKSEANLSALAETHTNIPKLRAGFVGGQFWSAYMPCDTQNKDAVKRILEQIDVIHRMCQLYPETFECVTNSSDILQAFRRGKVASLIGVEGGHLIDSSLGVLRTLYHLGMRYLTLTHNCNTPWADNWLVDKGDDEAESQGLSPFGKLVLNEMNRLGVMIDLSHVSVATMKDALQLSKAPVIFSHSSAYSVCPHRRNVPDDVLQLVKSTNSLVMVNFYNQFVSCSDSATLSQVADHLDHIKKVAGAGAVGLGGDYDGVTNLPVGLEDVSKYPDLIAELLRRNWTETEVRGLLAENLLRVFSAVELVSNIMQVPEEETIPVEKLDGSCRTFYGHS
T2 sequence (Q9H4A9 33-463): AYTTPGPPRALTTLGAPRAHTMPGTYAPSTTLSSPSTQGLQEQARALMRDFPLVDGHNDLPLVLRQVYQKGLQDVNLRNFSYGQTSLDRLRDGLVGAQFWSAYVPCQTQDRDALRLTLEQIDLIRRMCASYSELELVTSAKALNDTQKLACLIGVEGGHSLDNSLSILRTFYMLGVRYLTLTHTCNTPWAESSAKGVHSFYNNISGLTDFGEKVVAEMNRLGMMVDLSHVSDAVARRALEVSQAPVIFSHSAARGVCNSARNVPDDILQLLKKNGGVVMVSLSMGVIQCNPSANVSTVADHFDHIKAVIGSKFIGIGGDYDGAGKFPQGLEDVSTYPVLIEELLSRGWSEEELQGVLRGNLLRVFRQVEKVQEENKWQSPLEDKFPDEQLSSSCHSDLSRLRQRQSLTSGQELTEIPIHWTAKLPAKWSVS

## H-LSALTPSPSWLKYKAL [LSALT]
[1]
  metabolism in whole blood: metabolized in whole blood into smaller fragments
[2]
  inhibition of human DPEP1 enzymatic activity: do not inhibit membrane dipeptidase enzyme activity
Human DPEP2
  binding to human DPEP2 transfected Cos-1 cells: does not Bind
[3]
  binding to Cos-7 cells on DPEP-1 expression, flow cytometry: Enhanced the Binding
  binding to Cos-7 cells on DPEP-1 expression, immunofluorescence microscopy: Enhanced the Binding
[4]
  neutrophil adhesion in the hepatic sinusoids: inhibits neutrophil adhesion in the hepatic sinusoids
